The source of these data is patent US10934253B2, “Therapeutic compounds and methods” (UNIVERSITY OF TASMANIA, priority 2017, dated 2021).

Experiment [1] concerns HepG2 cells. As to the kind of experiment: Acute ATP rescue assay (impaired mitochondrial function, rotenone). It is filed as cell-based. To be noted: Homo sapiens, 1 h; HepG2; 1 μM quinones with rotenone 10 μM, 60 minutes, glucose-free DMEM; % ATP compared to untreated (no-rotenone) control. As to the method: HepG2 cells were seeded at a density of 5000 cells per well in a 96-well plate and incubated for 24 hours in DMEM with 0.3 g/l glucose, 10% FBS and Penicillin-Streptomycin-Glutamine. Cells were treated with 1 μM quinones in presence or absence of rotenone (10 μM), for 60 minutes in glucose-free DMEM ATP levels were quantified using luminescence from the ATP-dependent enzymatic oxidation of luciferin by luciferase. Cells were lysed in a volume of 40 μl (4 mM EDTA, 0.2% Triton X-100) for five minutes at room temperature (RT) on an orbital shaker at 200 rpm. […] Luminescence was quantified immediately using a multimode plate reader (Fluoroscan Ascent, Thermo Scientific). ATP levels were standardized to protein levels using a commercial BCA assay (Protein DC; BioRad) and changes were calculated as percentage relative to levels of DMSO-treated control cells. Data is expressed as % ATP compared to the untreated (no-rotenone) control.
Vitamin K, menadione and idebenone were used as comparative controls. DMSO was used as a control.

The test system of experiment [2] is HepG2 cells. In words: Cell viability in the presence of a mitochondrial inhibitor (rotenone 10 μM). Particulars: Homo sapiens, HepG2, 48 h, read-out: CELL VIABILITY [%]. It is filed as cell-based. The method, then: (§1) Cytoprotection of HepG2 cells by naphthoquinones was quantified in the presence of the mitochondrial toxin, rotenone. Briefly, HepG2 cells were seeded in 96-well plates at 5000 cells/well in DMEM with 0.3 g/l glucose, 10% FBS and Penicillin-Streptomycin-Glutamine. After overnight incubation under standard conditions, cells were treated with the test compounds (10 μM) for 2 days before cells were challenged with 1 μM rotenone in the presence of 10 μM test compounds in Hank's balanced salt solution (HBSS) for 6 hours. This was followed by post-incubation for an additional 18 hours with only 10 μM test compounds in HBSS. For measurement of cell viability, cells were washed with 100 μL PBS twice and then lysed using 40 μL lysis solution (4 mM EDTA, 0.2% Triton X-100) for 5 min at room temperature (RT) on an orbital shaker at 200 rpm. Then 10 μL of the lysate was mixed with 90 μL of enzyme-substrate mixture (as described above) in a white 96 well plate and luminescence was measured immediately using a plate-reader (Fluoroscan Ascent, Thermo Scientific). The data is expressed as % viability compared to the untreated (no-rotenone) control.
The cytoprotective effects of representative compounds of Formula (I) were further examined in vitro in response to rotenone toxicity at (10 μM). […] Cells were treated with the representative compounds of Formula (I) compounds (10 μM) for 2 days before cells were challenged with 10 μM rotenone.
Vitamin K, Menadione and Idebenone were used as comparative controls.

The subject of experiment [3] is DSS-induced colitis in C57BL/6 mice. As to the kind of experiment: Dextran sulfate sodium (DSS) induced colitis mouse model. It is filed as in vivo. Particulars: 2.5% DSS 7 days, 200 mg/kg orally in food once daily, vs DSS controls. The method, then:
FIGS. 8-11: Ulcerative Colitis mouse model following treatment with representative compound of Formula (I) (UTA77); FIG. 8: Body weight loss; FIG. 9: Stool consistency; FIG. 10: Bloody stools; FIG. 11: Disease activity index. […] UTA77 was formulated with food powder (200 mg/kg of body weight) which was orally administered once daily over a period of 7 days.
Body weight (refer to FIG. 8), stool consistency (refer to FIG. 9), blood content of stools (refer to FIG. 10), and general disease activity index (refer to FIG. 11) were all assessed following treatment with representative compound of Formula (I), UTA77.
Female C57BL/6 mice were used at 7-8 weeks of age having an average body weight≈17 g. Mice were divided randomly into three different groups: • 1. a healthy control group without DSS, • 2. a control group with DSS, • 3. a group treated with DSS and test compound (n=5 per group).
Body weight of mice were assessed daily over an initial acclimation period of one week (FIG. 8). All mice were non-fasting and had access to food and drinking water (autoclaved tap water) ad libitum. Representative compounds of Formula (I) were formulated with food powder (200 mg/kg of body weight) to produce individual portions that were placed into the cage once a day. Representative compounds of Formula (I) (20 mg/ml) were stirred overnight at 4° C. in 500 ml 0.5% carboxymethylcellulose (CMC) solution. To 37.5 ml of the CMC solution, 41.25 g sucrose, 371.25 g food powder and 0.5% CMC solution were mixed to prepare a food mash, which was aliquoted (2.2 g portions) in weighting trays and individually stored at −20° C. Colitis was induced by supplementing 2.5% w/v of dextran sulphate sodium (DSS, MW=36,000-50,000, colitis grade, MP Biomedicals, USA) in the drinking water of mice from day 0 to day 7 (day of termination). On day 0, all mice were weighed and checked for stool consistency and occult blood before they were exposed to DSS and test compounds. Control animals were only supplied with autoclaved drinking water without DSS, and normal chow pellets, while 2.5% DSS in tap water was provided to the DSS-treated groups from day 0 to day 7. All controls groups were also supplied with 2.2 g of food mash without test compounds. The animals of the drug-treated groups received 200 mg/kg of test compounds in food mash with 2.5% of DSS in water from day 0 to day 7. Body weight (refer to FIG. 8), stool consistency (refer to FIG. 9), blood content of stools (refer to FIG. 10) were recorded daily. The Disease Activity Index (DAI) (FIG. 11) was calculated according to scoring Table 9 below. Each parameter was scored independently and all three parameters were added to calculate the DAI.

Experiment [4] has as its system HepG2 cells. As to the kind of experiment: Rescue of cell viability in the presence of a mitochondrial inhibitor (rotenone 1 μM). It is filed as cell-based. Particulars: Homo sapiens, HepG2. The method, then:
as §1
The extent of protection of cellular viability against a rotenone challenge of representative compounds of Formula (I) is shown below in Table 5. Vitamin K, Menadione and Idebenone were used as comparative controls. DMSO was used as a control.

For orientation: viability means the share of living cells, or the viability signal relative to a control.

The molecule `COc1ccc(CCNC(=O)CCCC2=C(C)C(=O)c3ccccc3C2=O)cc1OC` [UTA #77, N-(3,4-dimethoxyphenethyl)-4-(3-methyl-1,4-naphthoquinone-2-yl)butanamide] gave an activity at 1 µM in experiment [1] of 99.1%. Moreover, the viability at 10 µM in experiment [2] was 95.9%. Besides, in experiment [3], the “Bloody stools (in words)” value is on record as “reduction in bloody stools”, the “Body weight loss (in words)” value is given as “less weight loss than DSS controls”, the “Disease activity index (in words)” value is recorded as “reduced disease activity” and the “Stool consistency (in words)” value is “improved stools”. The viability at 10 µM in experiment [4] turned out to be 95.9%.
